Experimental data published in patent US10730863B2, “Bridged bicyclic compounds as farnesoid X receptor modulators” (BRISTOL-MYERS SQUIBB COMPANY, priority 2017, dated 2020).

Target: FXR (Homo sapiens (Human), UniProt Q96RI1)
Experiment: FXR EC50 (FXR agonist activity reported with each example)
Type: cell-based

Chain of FXR (Q96RI1 262-486): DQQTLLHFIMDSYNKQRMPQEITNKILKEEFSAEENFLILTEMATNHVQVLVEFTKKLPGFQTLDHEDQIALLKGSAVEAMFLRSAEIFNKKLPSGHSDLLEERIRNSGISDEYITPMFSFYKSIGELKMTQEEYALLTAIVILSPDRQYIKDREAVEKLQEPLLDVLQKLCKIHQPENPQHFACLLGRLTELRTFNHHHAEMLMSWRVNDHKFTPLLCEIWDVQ

Compound	EC50 [µM]
O=C(O)C1CC1c1noc(C23CCC(OCc4c(-c5c(Cl)cccc5Cl)noc4C4CC4)(CC2)CC3)n1 (stereo not drawn) [Example 266, 2-(5-(4-((5-cyclopropyl-3-(2,6-dichlorophenyl)isoxazol-4-yl)methoxy)bicyclo[2.2.2]octan-1-yl)-1,2,4-oxadiazol-3-yl)cyclopropane-1-carboxylic acid]	0.72
CCOc1cc(OCC23CCC(OCc4c(-c5c(Cl)cncc5Cl)noc4C4CC4)(CC2)CC3)cnc1C(=O)O [Example 294, 5-((4-((5-cyclopropyl-3-(3,5-dichloropyridin-4-yl)isoxazol-4-yl)methoxy)bicyclo[2.2.2]octan-1-yl)methoxy)-3-ethoxypicolinic acid]	0.032
O=C(O)C1CC1c1noc(C23CCC(OCc4c(-c5c(Cl)cncc5Cl)noc4C4CC4)(CC2)CC3)n1 (stereo not drawn) [Example 270, 2-(5-(4-((5-cyclopropyl-3-(3,5-dichloropyridin-4-yl)isoxazol-4-yl)methoxy)bicyclo[2.2.2]octan-1-yl)-1,2,4-oxadiazol-3-yl)cyclopropane-1-carboxylic acid]	1.5
O=C(O)c1cccc(-c2noc(C34CCC(/C=C/c5c(-c6c(Cl)cncc6Cl)noc5C5CC5)(CC3)CO4)n2)c1 [Example 467, (E)-3-(5-(4-(2-(5-cyclopropyl-3-(3,5-dichloropyridin-4-yl)isoxazol-4-yl)vinyl)-2-oxabicyclo[2.2.2]octan-1-yl)-1,2,4-oxadiazol-3-yl)benzoic acid]	0.26
FC(F)(F)Oc1ccccc1-c1noc(C2CC2)c1COC12CCC(/C=C/c3cccc(-c4nnn[nH]4)c3)(CC1)CC2 [Example 8, (E)-4-(((4-(3-(1H-tetrazol-5-yl)styryl)bicyclo[2.2.2]octan-1-yl)oxy)methyl)-5-cyclopropyl-3-(2-(trifluoromethoxy)phenyl)isoxazole]	0.38
O=C(O)c1cc(C23CCC(COCc4c(-c5ccccc5OC(F)(F)F)noc4C4CC4)(CC2)CO3)ccc1F [Example 207]	0.57
O=C(O)c1ccc2nc(OCC34CCC(C=Cc5c(-c6c(Cl)cccc6Cl)noc5C5CC5)(CC3)CC4)sc2c1 [Example 192]	0.0072
O=C(O)c1ccc(C23CCC(COCc4c(-c5c(Cl)cccc5Cl)noc4C4CC4)(CC2)CO3)cc1 [Example 201]	0.27
O=C(O)c1cc(OCC23CCC(OCc4c(-c5ccccc5C(F)(F)F)noc4C4CC4)(CC2)CC3)ccc1F [Example 290]	0.26
N#Cc1cccc(OCC23CCC(OCc4c(-c5c(Cl)cccc5Cl)noc4C4CC4)(CC2)CC3)c1 [Example 88, 3-((4-((5-cyclopropyl-3-(2,6-dichlorophenyl)isoxazol-4-yl)methoxy)bicyclo[2.2.2]octan-1-yl)methoxy)benzonitrile]	0.96
COCCOc1cc(OCC23CCC(OCc4c(-c5c(Cl)cncc5Cl)noc4C4CC4)(CC2)CC3)cnc1C(=O)O [Example 336]	0.16
COc1c(F)cc(-c2noc(C34CCC(OCc5c(-c6c(Cl)cncc6Cl)noc5C5CC5)(CC3)CC4)n2)cc1C(=O)O [Example 238, 5-(5-(4-((5-cyclopropyl-3-(3,5-dichloropyridin-4-yl)isoxazol-4-yl)methoxy)bicyclo[2.2.2]octan-1-yl)-1,2,4-oxadiazol-3-yl)-3-fluoro-2-methoxybenzoic acid]	0.021
O=C(O)c1cc(OC(F)F)cc(-c2noc(C34CCC(/C=C/c5c(-c6c(Cl)cncc6Cl)noc5C5CC5)(CC3)OC4)n2)c1 [Example 497, (E)-3-(5-(1-(2-(5-cyclopropyl-3-(3,5-dichloropyridin-4-yl)isoxazol-4-yl)vinyl)-2-oxabicyclo[2.2.2]octan-4-yl)-1,2,4-oxadiazol-3-yl)-5-(difluoromethoxy)benzoic acid]	0.46
NC(=O)c1cc(C(F)(F)F)c2cc(OCC34CCC(OCc5c(-c6c(Cl)cncc6Cl)noc5C5CC5)(CC3)CC4)ccc2n1 [Example 291, 6-((4-((5-cyclopropyl-3-(3,5-dichloropyridin-4-yl)isoxazol-4-yl)methoxy)bicyclo[2.2.2]octan-1-yl)methoxy)-4-(trifluoromethyl)quinoline-2-carboxamide]	0.23
O=C(O)c1ccc2nc(C34CCC(COCc5c(-c6c(Cl)cccc6Cl)noc5C5CC5)(CC3)CC4)sc2c1 [Example 168, 2-(4-(((5-cyclopropyl-3-(2,6-dichlorophenyl)isoxazol-4-yl)methoxy)methyl)bicyclo[2.2.2]octan-1-yl)benzo[d]thiazole-6-carboxylic acid]	1.2
O=C(O)c1ccc(C#CC23CCC(OCc4c(-c5c(Cl)cncc5Cl)noc4C4CC4)(CC2)CC3)nn1 [Example 419]	2
NC(=O)c1cc(-c2noc(C34CCC(/C=C/c5c(-c6c(Cl)cncc6Cl)noc5C5CC5)(CC3)CC4)n2)cc(C(F)(F)F)c1 [Example 441, (E)-3-(5-(4-(2-(5-cyclopropyl-3-(3,5-dichloropyridin-4-yl)isoxazol-4-yl)vinyl)bicyclo[2.2.2]octan-1-yl)-1,2,4-oxadiazol-3-yl)-5-(trifluoromethyl)benzamide]	0.15

Compound	EC50 [µM]
COc1cc(-c2noc(C34CCC(OCc5c(-c6c(Cl)cncc6Cl)noc5C5CC5)(CC3)CC4)n2)cc(C(=O)O)c1F [Example 241, 5-(5-(4-((5-cyclopropyl-3-(3,5-dichloropyridin-4-yl)isoxazol-4-yl)methoxy)bicyclo[2.2.2]octan-1-yl)-1,2,4-oxadiazol-3-yl)-2-fluoro-3-methoxybenzoic acid]	0.13
O=C(O)c1c(F)ccc(-c2noc(C34CCC(OCc5c(-c6c(Cl)cncc6Cl)noc5C5CC5)(CC3)CC4)n2)c1F [Example 248, 3-(5-(4-((5-cyclopropyl-3-(3,5-dichloropyridin-4-yl)isoxazol-4-yl)methoxy)bicyclo[2.2.2]octan-1-yl)-1,2,4-oxadiazol-3-yl)-2,6-difluorobenzoic acid]	1.1
COc1cc(OCC23CCC(/C=C/c4c(-c5c(Cl)cncc5Cl)noc4C4CC4)(CC2)OC3)cc(C(=O)O)c1 [Example 474, (E)-3-((1-(2-(5-cyclopropyl-3-(3,5-dichloropyridin-4-yl)isoxazol-4-yl)vinyl)-2-oxabicyclo[2.2.2]octan-4-yl)methoxy)-5-methoxybenzoic acid]	0.49
N#Cc1ccc(C(=O)O)c2ccc(C34CCC(OCc5c(-c6c(Cl)cncc6Cl)noc5C5CC5)(CC3)CC4)nc12 [Example 384, 8-cyano-2-(4-((5-cyclopropyl-3-(3,5-dichloropyridin-4-yl)isoxazol-4-yl)methoxy)bicyclo[2.2.2]octan-1-yl)quinoline-5-carboxylic acid]	0.82
COc1ccc(-c2noc(C34CCC(OCc5c(-c6c(Cl)cncc6Cl)noc5C5CC5)(CC3)CC4)n2)cc1C(=O)NS(C)(=O)=O [Example 236, 5-(5-(4-((5-cyclopropyl-3-(3,5-dichloropyridin-4-yl)isoxazol-4-yl)methoxy)bicyclo[2.2.2]octan-1-yl)-1,2,4-oxadiazol-3-yl)-2-methoxy-N-(methylsulfonyl)benzamide]	0.026
COC(=O)c1ccc(-c2noc(C34CCC(COCc5c(-c6ccccc6OC(F)(F)F)noc5C5CC5)(CC3)CC4)n2)cc1 [Example 155]	2.5
COc1ccc(-c2noc(C34CCC(OCc5c(-c6c(Cl)cncc6Cl)noc5C5CC5)(CC3)CC4)n2)cc1C(N)=O [Example 240, 5-(5-(4-((5-cyclopropyl-3-(3,5-dichloropyridin-4-yl)isoxazol-4-yl)methoxy)bicyclo[2.2.2]octan-1-yl)-1,2,4-oxadiazol-3-yl)-2-methoxybenzamide]	0.17
O=C(O)c1cc(C23CCC(COCc4c(-c5c(Cl)cccc5Cl)noc4C4CC4)(CC2)CO3)ccc1F [Example 202]	0.39
O=C(O)c1ccc(-c2noc(C34CCC(OCc5c(-c6c(Cl)cccc6Cl)noc5C5CC5)(CC3)CC4)n2)nc1 [Example 9, 6-(5-(4-((5-cyclopropyl-3-(2,6-dichlorophenyl)isoxazol-4-yl)methoxy)bicyclo[2.2.2]octan-1-yl)-1,2,4-oxadiazol-3-yl)nicotinic acid]	0.95
COc1ccc(-c2noc(C34CCC(OCc5c(-c6c(Cl)cncc6Cl)noc5C5CC5)(CC3)CC4)n2)c(F)c1C(=O)O [Example 250, 3-(5-(4-((5-cyclopropyl-3-(3,5-dichloropyridin-4-yl)isoxazol-4-yl)methoxy)bicyclo[2.2.2]octan-1-yl)-1,2,4-oxadiazol-3-yl)-2-fluoro-6-methoxybenzoic acid]	0.73
O=C(O)c1cnc(OCC23CCC(OCc4c(-c5c(Cl)cncc5Cl)noc4C4CC4)(CC2)CC3)c(F)c1 [Example 118, 6-((4-((5-cyclopropyl-3-(3,5-dichloropyridin-4-yl)isoxazol-4-yl)methoxy)bicyclo[2.2.2]octan-1-yl)methoxy)-5-fluoronicotinic acid]	0.033
O=C(O)c1cc(OC2CCC2)c2cc(C#CC34CCC(OCc5c(-c6c(Cl)cncc6Cl)noc5C5CC5)(CC3)CC4)ccc2n1 [Example 402]	0.052
COc1ccc(-c2nc(C34CCC(OCc5c(-c6c(Cl)cncc6Cl)noc5C5CC5)(CC3)CC4)cs2)cc1C(=O)O [Example 255, 5-(4-(4-((5-cyclopropyl-3-(3,5-dichloropyridin-4-yl)isoxazol-4-yl)methoxy)bicyclo[2.2.2]octan-1-yl)thiazol-2-yl)-2-methoxybenzoic acid]	0.018
O=C(O)c1cccc(-c2nc(C34CCC(OCc5c(-c6ccccc6OC(F)(F)F)noc5C5CC5)(CC3)CC4)no2)c1 [Example 55]	0.25
CC(C)(O)COc1ccc(C(=O)O)c2ccc(C34CCC(OCc5c(-c6c(Cl)cncc6Cl)noc5C5CC5)(CC3)CC4)nc12 [Example 418, 2-(4-((5-cyclopropyl-3-(3,5-dichloropyridin-4-yl)isoxazol-4-yl)methoxy)bicyclo[2.2.2]octan-1-yl)-8-(2-hydroxy-2-methylpropoxy)quinoline-5-carboxylic acid]	0.12
O=C(O)c1ccc(OCC23CCC(OCc4c(-c5c(Cl)cncc5Cl)noc4C4CC4)(CC2)CC3)c(F)c1 [Example 276, 4-((4-((5-cyclopropyl-3-(3,5-dichloropyridin-4-yl)isoxazol-4-yl)methoxy)bicyclo[2.2.2]octan-1-yl)methoxy)-3-fluorobenzoic acid]	0.17
